For this assay, the target named is DCN1 (Homo sapiens (Human), UniProt Q96GG9). Description: Competitive FP binding assay. The method, boiled down: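 FP competition with DCN1 in 100 mM phosphate pH 6.5, 0.02% Tween-20, 2% DMSO, probe 5 nM final. Equilibrated 30 min at room temperature with shaking. DCN1 was His6-tagged (uncleaved), expressed in E. coli Rosetta2 and purified by Ni-NTA and gel filtration.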

Where [1] appears, read: bounds given in μM, read-out: Binding affinity to DCN1 (IC50).
Setting [2] is: read-out: Binding affinity to DCN1 (IC50 (nM)).

Where a name gives a salt, the structure may show the parent alone. Read-outs that look alike come from different tables or passages of the source. Square brackets hold non-standard residues; d marks the D form. Peptide text beside a SMILES is read from it. * marks the point of attachment. Ala(6-iPr-benzothiazol-2-yl) = CC(C)c1ccc2nc(C[C@H](N)C(=O)O)sc2c1; 2Nal = N[C@@H](Cc1ccc2ccccc2c1)C(=O)O; tBuAla = CC(C)(C)C[C@H](N)C(=O)O; Propionyl = CCC(=O)*; Tfa = O=C(C(F)(F)F)*

DCN1, sequence (Q96GG9 58-259): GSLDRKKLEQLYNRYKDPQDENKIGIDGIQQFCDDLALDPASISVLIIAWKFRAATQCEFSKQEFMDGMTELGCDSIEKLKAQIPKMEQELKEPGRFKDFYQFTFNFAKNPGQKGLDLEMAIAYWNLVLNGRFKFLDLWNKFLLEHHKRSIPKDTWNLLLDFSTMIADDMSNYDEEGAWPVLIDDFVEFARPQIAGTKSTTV

Regarding `CCC(=O)N[C@@H](Cc1nc2ccc(C(C)C)cc2s1)C(=O)N[C@H](CN)Cc1ccccc1` (stereo in doubt) [Example 89], under setting [1], the IC50 is more than 10 µM.

On to `CC[C@H](C)[C@H](NC(=O)[C@H](Cc1ccc2ccccc2c1)NC(=O)C(F)(F)F)C(=O)N[C@@H](CCCCN)C(=O)N[C@@H](CC(C)C)C(N)=O` [Example 137] (Tfa-[2Nal]IKL-NH2), for which the “Binding affinity to DCN1 (IC50 (nM))” value was “precipitation”.

Consider `CCC(=O)N[C@@H](Cc1ccc2ccccc2c1)C(=O)N[C@H](C(=O)N[C@@H](CCCCN)C(=O)N[C@@H]1CCc2ccccc21)[C@@H](C)CC` [Example 13], for which the IC50 under setting [2] was 0.913 µM.

As for `CCC(=O)N[C@@H](Cc1nc2ccc(CC)cc2s1)C(=O)N[C@H](C(=O)N[C@@H](CCCCN)C(=O)N[C@@H]1CCOc2ccccc21)C1CCCC1` [Example 176], the IC50 under setting [2] came to 0.079 µM.

As for `CC[C@H](C)[C@H](NC(=O)[C@H](Cc1nc2ccc(C(C)C)cc2s1)NC(C)=O)C(=O)N[C@@H](CCCCN)C(N)=O` [Example 6, (S)-2-((2S,3 S)-2-((S)-2-acetamido-3-(6-isopropylbenzo[d]thiazol-2-yl)propanamido)-3-methylpentanamido)-6-aminohexanamide], the IC50 under setting [2] was found to be 0.632 ± 0.029 µM.

Take `CCC(=O)N[C@@H](Cc1nc(C)c(-c2ccc(Cl)cc2)s1)C(=O)N[C@H](CN)Cc1ccccc1` [Example 102]: under setting [2], the IC50 stood at 1.28 µM.

Turning to `CCC(=O)N[C@@H](Cc1ccc2ccccc2c1)C(=O)N[C@H](C(=O)N[C@@H](CCCCNC1CCN(C)CC1)C(=O)NC(c1ccccc1)c1ccccc1)C1CCCC1` [Example 147], the IC50 under setting [2] is 0.354 µM.

As for `CCC(=O)N[C@@H](Cc1nc2ccc(C)cc2s1)C(=O)N[C@H](C(=O)N[C@@H](CCCCN)C(=O)N[C@@H]1CCOc2ccccc21)C(C)(C)O` [Example 182], the IC50 under setting [2] stood at 0.375 µM.

Turning to `CCC(=O)N[C@H](CNC(=O)[C@H](N)C1CCCC1)Cc1nc2ccc(Cl)cc2s1` [Example 261], under setting [1], the IC50 was more than 5 µM.

For `CCC(=O)N[C@@H](Cc1ccc2ccccc2c1)C(=O)N[C@H](C(=O)N[C@@H](CCCCN)C(=O)N[C@@H]1CCCc2ccccc21)C1CCCC1` [Example 148], under setting [2], the IC50 was determined as 0.402 µM.

Turning to `CCC(=O)N[C@H](CNC(=O)C1(N)CCC(F)(F)CC1)Cc1nc2ccc(C(C)C)cc2s1` [Example 111], the IC50 under setting [1] is more than 5 µM.

With `CCC(=O)N[C@@H](Cc1nc2ccc(C(C)C)cc2s1)C(=O)N[C@H](CNC(=O)C1CN(C)C1)C1CCCCC1` [Example 69], the IC50 under setting [2] was determined as 0.0716 µM.

As for `CCC(=O)N[C@@H](Cc1nc2ccc(Cl)cc2s1)C(=O)N[C@@H](Cc1ccccn1)C(=O)N[C@@H](CCCCN)C(=O)N[C@@H]1CCOc2ccccc21` [Example 202], under setting [2], the IC50 was determined as 0.251 µM.

Take `CCC(=O)N[C@@H](Cc1nc2ccc(Cl)cc2s1)C(=O)N[C@H](C(=O)NCCCCCN(C)C)C1CCCC1` [Example 224]: the IC50 under setting [2] amounted to 0.575 µM.

Regarding `CCC(=O)N[C@@H](Cc1nc2ccc(C(C)C)cc2s1)C(=O)N[C@H](CNC(=O)C1CCN(CCF)CC1)C1CCCCC1` [Example 74], under setting [2], the IC50 came to 0.112 µM.

On to `CCC(=O)N[C@@H](Cc1nc2ccc(Cl)cc2s1)CN(Cc1ccccc1)Cc1ccccc1` [Example 259], for which, under setting [1], the IC50 is more than 10 µM.

`CCC(=O)N[C@@H](Cc1nc2ccc(C(C)C)cc2s1)C(=O)N[C@H](CNC(=O)C12CCN(CC1)CC2)C1CCCCC1` [Example 64]: the IC50 under setting [2] was found to be 0.036 µM.

On to `CCCC(=O)N[C@@H](Cc1nc2ccc(C(C)C)cc2s1)C(=O)N[C@H](CN)[C@@H](C)CC` [Example 51, N—((S)-1-(((2S,3 S)-1-amino-3-methylpentan-2-yl)amino)-3-(6-isopropylbenzo[d]thiazol-2-yl)-1-oxopropan-2-yl)butyramide], for which the concentration for half-maximal inhibition (IC50) under setting [2] came out at 0.944 ± 0.176 µM.

Take `CCC(=O)N[C@@H](Cc1nc2ccc(Cl)cc2s1)C(=O)N[C@H](C(=O)N[C@@H](CCCCN)C(=O)NCc1cccnc1)C1CCOCC1` [Example 242]: the IC50 under setting [2] came out at 1.2 µM.

Consider `CCC(=O)N[C@@H](Cc1nc2ccc(C(C)C)cc2s1)C(=O)N[C@H](CNC(=O)CN1CCOCC1)C1CCCCC1` [Example 57, (S)—N—((S)-1-cyclohexyl-2-(2-morpholinoacetamido)ethyl)-3-(6-isopropylbenzo[d]thiazol-2-yl)-2-propionamidopropanamide], for which the IC50 under setting [2] turned out to be 0.0704 µM.

Turning to `CCC(=O)N[C@@H](Cc1nc2ccc(Cl)cc2s1)C(=O)N[C@H](CN)[C@@H](C)CC` [Example 213], under setting [2], the IC50 is 0.746 ± 0.072 µM.

Take `CCC(=O)N[C@H](Cc1nc2ccc(Cl)cc2s1)C(=O)N[C@@H](C(=O)N[C@H](CCCCN)C(=O)N[C@H]1CCOc2ccccc21)C1CCOCC1` [Example 204]: the concentration for half-maximal inhibition (IC50) under setting [1] was more than 10 µM.

With `CCC(=O)N[C@@H](Cc1nc(C)n(C(C)C)n1)C(=O)N[C@H](CN)Cc1ccccc1` [DI-533], under setting [1], the IC50 was more than 10 µM.

Consider `CCC(=O)N[C@@H](Cc1ccc2ccccc2c1)C(=O)N[C@H](C(=O)N[C@@H](CCCCNC1CCN(C)CC1)C(=O)NC(c1ccc(F)cc1)c1ccc(F)cc1)C1CCCC1` [Example 144], for which, under setting [2], the IC50 is 0.273 µM.

As to `CCC(=O)N[C@@H](Cc1nc2ccc(C(C)C)cc2s1)C(=O)N[C@H](CNC(=O)NC1CCNCC1)C1CCCCC1` [DI-749], the IC50 under setting [2] amounted to 0.0529 µM.

Take `CCC(=O)N[C@@H](Cc1nc2ccc(C(C)C)cc2s1)C(=O)N[C@H](C(=O)NCCN1CCOCC1)C1CCNCC1` [Example 265]: under setting [1], the IC50 was more than 10 µM.

As for `CCC(=O)N[C@@H](Cc1nc2ccc(Cl)cc2s1)C(=O)N[C@H](CNC(=O)[C@H](C)CN1CCOCC1)Cc1ccccc1` [Example 226], the IC50 under setting [2] came out at 0.611 µM.

With `CC[C@H](C)[C@@H](CN)NC(=O)[C@H](Cc1nc2ccc(C(C)C)cc2s1)NC(=O)NC` [Example 52, (S)—N-((2S,3S)-1-amino-3-methylpentan-2-yl)-3-(6-isopropylbenzo[d]thiazol-2-yl)-2-(3-methylureido)propanamide], under setting [2], the IC50 was 0.558 ± 0.125 µM.

As for `CCC(=O)N[C@@H](Cc1nc2ccc(C(C)C)cc2s1)C(=O)N[C@H](C(=O)N[C@@H](CCCCN)C(=O)N[C@@H](CC(C)C)C(N)=O)C(C)C` [Example 282] (Propionyl-[Ala(6-iPr-benzothiazol-2-yl)]VKL-NH2), the IC50 under setting [2] stood at 0.072 µM.

Regarding `CCC(=O)N[C@@H](Cc1nc2ccc(C(C)C)cc2s1)C(=O)N[C@H](CN)C1CCCCC1` [Example 56, (S)—N—((S)-2-amino-1-cyclohexylethyl)-3-(6-isopropylbenzo[d]thiazol-2-yl)-2-propionamidopropanamide], the IC50 under setting [2] stood at 0.0796 µM.

In the case of `CC[C@H](C)[C@@H](CN)NC(=O)[C@H](Cc1nc2ccc(C(C)C)cc2s1)NC(C)=O` [Example 46, (S)-2-acetamido-N-((2S,3S)-1-amino-3-methylpentan-2-yl)-3-(6-isopropylbenzo[d]thiazol-2-yl)propanamide], the IC50 under setting [2] worked out at 0.281 ± 0.029 µM.

As to `CCC(=O)N[C@@H](Cc1ccc2ccccc2c1)C(=O)N[C@H](C(=O)N[C@@H](CCCCN(C)C)C(=O)NC(c1ccccc1)c1ccccc1)C1CCCC1` [Example 146], the IC50 under setting [2] came to 0.464 µM.

`CC[C@H](C)[C@@H](CN)NC(=O)[C@H](Cc1nc2ccc(C(C)C)cc2s1)NC=O` [Example 48, (S)—N-((2S,3S)-1-amino-3-methylpentan-2-yl)-2-formamido-3-(6-isopropylbenzo[d]thiazol-2-yl)propanamide]: the IC50 under setting [1] is more than 5 µM.

With `NCCNC(=O)[C@H](Cc1nc2ccc(Cl)cc2s1)NC(=O)CCOc1ccccc1` [Example 237], the IC50 under setting [1] was more than 10 µM.

As for `CCC(=O)N[C@@H](Cc1nc2ccc(Cl)cc2o1)C(=O)N[C@H](C(=O)N[C@@H](CCCCN)C(=O)N[C@@H]1CCOc2ccccc21)C1CCOCC1` [Example 198], the IC50 under setting [2] turned out to be 0.12 µM.

Turning to `CCC(=O)N[C@@H](Cc1nc2ccc(Cl)c(Cl)c2s1)C(=O)N[C@H](CN)Cc1ccccc1` [Example 221], the 50% inhibitory concentration (IC50) under setting [2] came out at 0.294 µM.

As for `CCC(=O)N[C@@H](Cc1nc2ccc(C(C)C)cc2s1)C(=O)N[C@@H](CC(C)(C)C)C(=O)N[C@@H](CCCCN)C(=O)N[C@@H](CC(C)C)C(N)=O` [Example 283] (Propionyl-[Ala(6-iPr-benzothiazol-2-yl)][tBuAla]KL-NH2), the IC50 under setting [2] came out at 0.083 µM.

For the compound `CCC(=O)N[C@@H](Cc1nc2ccccc2n1C)C(=O)N[C@H](C(=O)N[C@@H](CCCCN)C(=O)NC(c1ccccc1)c1ccccc1)[C@@H](C)CC` [Example 136], under setting [1], the IC50 was more than 5 µM.

Turning to `CCC(=O)N[C@@H](Cc1nc2ccc(C)cc2s1)C(=O)N[C@H](C(=O)N[C@@H](CC1CCNCC1)C(=O)N[C@@H]1CCOc2ccccc21)C1CCOCC1` [Example 191], under setting [2], the IC50 was found to be 0.187 µM.

Consider `CCC(=O)N[C@@H](Cc1nc2ccc(Cl)cc2s1)C(=O)N[C@@H](C[C@H]1CC[C@H](CN)CC1)C(=O)N[C@@H](CCCCN)C(=O)N[C@@H]1CCOc2ccccc21` [Example 200], for which the IC50 under setting [2] was determined as 0.203 µM.

In the case of `CC(C)C(=O)N[C@@H](Cc1nc2ccc(C(C)C)cc2s1)C(=O)N[C@H](CN)C1CCCCC1` [Example 263], under setting [2], the IC50 is 0.139 µM.

Take `CCC(=O)N[C@@H](Cc1ccc2ccccc2c1)C(=O)N[C@H](C(=O)N[C@@H](CCCCN)C(=O)N[C@@H]1CCOc2ccc(Cl)cc21)C1CCCC1` [Example 164]: the IC50 under setting [2] turned out to be 0.394 µM.

Take `CCC(=O)N[C@@H](Cc1nc2cc(Cl)ccc2s1)C(=O)N[C@H](C(=O)N[C@@H](CCCCN)C(=O)NC(c1ccccc1)c1ccccc1)C1CCCC1` [Example 29]: the IC50 under setting [2] came to 0.572 µM.

Consider `CCC(=O)N[C@@H](Cc1nc2ccc(CC)cc2s1)C(=O)N[C@H](C(=O)N[C@@H](CCCCN)C(=O)N[C@@H]1CNCc2ccccc21)C1CCCC1` [Example 177], for which, under setting [2], the IC50 was found to be 0.079 µM.

Take `CCC(=O)N[C@@H](Cc1nc2ccccc2o1)C(=O)N[C@H](C(=O)N[C@@H](CCCCN)C(=O)NC(c1ccccc1)c1ccccc1)[C@@H](C)CC` [Example 154]: the IC50 under setting [2] was 0.981 µM.

Turning to `CCC(=O)N[C@@H](Cc1nc2ccc(C(C)C)cc2s1)C(=O)N[C@@H](CN)Cc1ccccc1` (stereo in doubt) [Example 91], the IC50 under setting [1] is more than 10 µM.

`CCC(=O)N[C@@H](Cc1ccc2ccccc2c1)C(=O)N[C@H](C(=O)N[C@@H](CCCCN)C(=O)NC(c1ccc(Cl)cc1)c1ccc(Cl)cc1)[C@@H](C)CC` [Example 129]: the IC50 under setting [2] worked out at 0.748 µM.

The term IC50 denotes the concentration that inhibits the measured activity by half.
